Source: US3958000A, “Fungicidal 2-arylthio-, 2-alkylthio- and 2-haloalkylthio-1,2,4-oxadiazolidine-3,5-diones” (Chevron Research Company, priority 1975, dated 1976)

Tests used:
Type in all cases: cell-based
Alternaria solani = test: Fungal spore control (spore slide-germination) against Alternaria solani; settings: Conc. 4 ppm, overnight in moist chamber, read-out: % Control (percent inhibition of germination of fungus spores)
Monolinia fructicola = test: Fungal spore control (spore slide-germination) against Monolinia fructicola; settings: Conc. 10 ppm, overnight in moist chamber, read-out: % Control (percent inhibition of germination of fungus spores)
Botrytis cinerea = test: Fungal spore control (spore slide-germination) against Botrytis cinerea; settings: Conc. 10 ppm, overnight in moist chamber, read-out: % Control (percent inhibition of germination of fungus spores)

| Structure (SMILES) | inhibition at 4 ppm (Alternaria solani) [%] | inhibition at 10 ppm (Monolinia fructicola) [%] | inhibition at 10 ppm (Botrytis cinerea) [%] |
| --- | --- | --- | --- |
| CC(C)n1c(=O)on(SC(Cl)(Cl)Cl)c1=O [Compound 3] | 99 | 100 | 100 |
| O=c1on(SC(Cl)(Cl)Cl)c(=O)n1C1CCCCC1 [Compound 1, 2-trichloromethylthio-4-cyclohexyl-1,2,4-oxadiazolidine-3,5-dione] | 78 | 100 | 100 |
